The values below come from patent US12685312B2, “Sulfonamide apyrase inhibitors” (Texas Crop Science, Inc., priority 2022, dated 2026).

This assay concerns apyrase. The assay can be described thus: Screen for apyrase inhibitors (Method 1, in vitro phosphate-release absorbance assay). The settings on record: inhibitor conc at 1 mM stock, 1 hr room temperature, absorbance 630 nm; rounded average of two assay results. In kind it is biochemical. In short, it runs like this:
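Phosphate-release colorimetric assay (Windsor method) in 60 mM Hepes, 3 mM MgCl2, 3 mM CaCl2, 3 mM ATP, pH 6.5, with compound or DMSO control added. Released phosphate developed with ammonium molybdate and ascorbic acid/TCA, then stopped with citrate/acetic acid.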
For the compound `Cc1ccc(F)cc1S(=O)(=O)Nc1cccc(C(=O)Nc2cccc(C#N)c2)c1` [I-318, N-(3-cyanophenyl)-3-((5-fluoro-2-methylphenyl)sulfonamido)benzamide], the “% Inhibition of Apyrase” value is 68%.

In the case of `NC(=O)OCCNC(=O)c1cccc(S(=O)(=O)Nc2ccc(Br)cc2)c1` [I-17, 2-(3-(N-(4-bromophenyl)sulfamoyl)benzamido)ethyl carbamate], the “% Inhibition of Apyrase” value was 52%.

As for `CN(c1ccccc1)S(=O)(=O)c1cccc(NC(=O)c2ccc(=O)[nH]n2)c1` [I-755, N-(3-(N-methyl-N-phenylsulfamoyl)phenyl)-6-oxo-1,6-dihydropyridazine-3-carboxamide], the “% Inhibition of Apyrase” value stood at 33%.

As for `COc1ccccc1C(=O)Nc1cccc(NS(=O)(=O)c2ccc(C)c(C)c2)c1` [I-341, N-(3-((3,4-dimethylphenyl)sulfonamido)phenyl)-2-methoxybenzamide], the “% Inhibition of Apyrase” value is reported as 64%.

For the compound `O=C(Nc1cc(F)ccc1F)c1cccc(S(=O)(=O)N2CCc3ccccc32)c1` [I-488, N-(2,5-difluorophenyl)-3-(indolin-1-ylsulfonyl)benzamide], the “% Inhibition of Apyrase” value stood at 58%.

Regarding `O=C(NC12CC3CC(CC(C3)C1)C2)c1cccc(S(=O)(=O)Nc2ccc(Br)cc2)c1` [I-240, N-(adamantan-1-yl)-3-(N-(4-bromophenyl)sulfamoyl)benzamide], the “% Inhibition of Apyrase” value worked out at 71%.

On to `CCOC(=O)c1c(NC(=O)c2cccc(S(=O)(=O)Nc3ccc(Cl)cc3)c2)sc2c1CCCC2` [I-506, ethyl 2-(3-(N-(4-chlorophenyl)sulfamoyl)benzamido)-4,5,6,7-tetrahydrobenzo[b]thiophene-3-carboxylate], for which the “% Inhibition of Apyrase” value was 57%.

For the compound `CCOc1ccc(N(C)S(=O)(=O)c2ccc(C)c(C(=O)N3c4ccccc4CC3C)c2)cc1` (centres unmarked) [I-564, N-(4-ethoxyphenyl)-N,4-dimethyl-3-(2-methylindoline-1-carbonyl)benzenesulfonamide], the “% Inhibition of Apyrase” value worked out at 51%.

For `O=C(c1ccc(S(=O)(=O)Nc2ccccc2)cc1)N1CCCc2ccccc21` [I-397, N-phenyl-4-(1,2,3,4-tetrahydroquinoline-1-carbonyl)benzenesulfonamide], the “% Inhibition of Apyrase” value is 45%.

As for `O=C(Nc1ccccn1)c1cccc(S(=O)(=O)Nc2cccc(Cl)c2)c1` [I-615, 3-(N-(3-chlorophenyl)sulfamoyl)-N-(pyridin-2-yl)benzamide], the “% Inhibition of Apyrase” value came out at 1%.

As for `N#Cc1cccc(NC(=O)c2ccc(S(=O)(=O)Nc3ccccc3Cl)cc2)c1` [I-202, 4-(N-(2-chlorophenyl)sulfamoyl)-N-(3-cyanophenyl)benzamide], the “% Inhibition of Apyrase” value is 78%.

With `CC1Cc2ccccc2N1C(=O)c1ccc(S(=O)(=O)Nc2ccccc2)cc1` (centres unmarked) [I-857, 4-(2-methylindoline-1-carbonyl)-N-phenylbenzenesulfonamide], the “% Inhibition of Apyrase” value stood at 76%.

As for `Cc1ccc(NS(=O)(=O)c2ccc(NC(=O)c3cccc(S(C)(=O)=O)c3)cc2)cc1C` [I-989, N-(4-(N-(3,4-dimethylphenyl)sulfamoyl)phenyl)-3-(methylsulfonyl)benzamide], the “% Inhibition of Apyrase” value was 54%.

In the case of `Cn1cc(O)nc1NC(=O)c1cccc(S(=O)(=O)Nc2ccc(Br)cc2)c1` [I-12, 3-(N-(4-bromophenyl)sulfamoyl)-N-(4-hydroxy-1-methyl-1H-imidazol-2-yl)benzamide], the “% Inhibition of Apyrase” value was 59%.

For the compound `O=C(Nc1ccc(C(F)(F)F)cc1)c1cccc(S(=O)(=O)Nc2ccc3c(c2)OCO3)c1` [I-192, 3-(N-(benzo[d][1,3]dioxol-5-yl)sulfamoyl)-N-(4-(trifluoromethyl)phenyl)benzamide], the “% Inhibition of Apyrase” value stood at 72%.

For `CC1Cc2ccccc2N1S(=O)(=O)c1cccc(C(=O)Nc2ccccc2OC(F)(F)F)c1` (centres unmarked) [I-476, 3-((2-methylindolin-1-yl)sulfonyl)-N-(2-(trifluoromethoxy)phenyl)benzamide], the “% Inhibition of Apyrase” value was 58%.

Regarding `N#Cc1cccc(NC(=O)c2ccc(NS(=O)(=O)c3ccc4c(c3)OCCO4)cc2)c1` [I-962, N-(3-cyanophenyl)-4-((2,3-dihydrobenzo[b][1,4]dioxine)-6-sulfonamido)benzamide], the “% Inhibition of Apyrase” value came out at 11%.

Regarding `CC(=O)Nc1ccc(NC(=O)c2cccc(S(=O)(=O)N3CCc4ccccc43)c2)cc1` [I-480, N-(4-acetamidophenyl)-3-(indolin-1-ylsulfonyl)benzamide], the “% Inhibition of Apyrase” value was 58%.

Turning to `COc1ccccc1NC(=O)c1ccc(S(=O)(=O)N(C)c2ccccc2OC)cc1` [I-880, N-(2-methoxyphenyl)-4-(N-(2-methoxyphenyl)-N-methylsulfamoyl)benzamide], the “% Inhibition of Apyrase” value is on record as 53%.

For `O=C(Nc1cccc(S(=O)(=O)Nc2ccc(Cl)cc2)c1)c1ccsc1` [I-717, N-(3-(N-(4-chlorophenyl)sulfamoyl)phenyl)thiophene-3-carboxamide], the “% Inhibition of Apyrase” value stood at 58%.

Turning to `COc1ccc(S(=O)(=O)N2CCc3ccccc32)cc1C(=O)Nc1cc(C(F)(F)F)cc(C(F)(F)F)c1` [I-447, N-(3,5-bis(trifluoromethyl)phenyl)-5-(indolin-1-ylsulfonyl)-2-methoxybenzamide], the “% Inhibition of Apyrase” value is recorded as 61%.

With `CC1Cc2ccccc2N1S(=O)(=O)c1cccc(C(=O)N2CCc3cccc(F)c32)c1` (centres unmarked) [I-494, (7-fluoroindolin-1-yl)(3-((2-methylindolin-1-yl)sulfonyl)phenyl)methanone], the “% Inhibition of Apyrase” value stood at 57%.

For `Cc1ccc(S(=O)(=O)Nc2ccc(C(=O)Nc3ccc(F)cc3)cc2)cc1C` [I-927, 4-((3,4-dimethylphenyl)sulfonamido)-N-(4-fluorophenyl)benzamide], the “% Inhibition of Apyrase” value came to 56%.

With `Cc1ccc(Br)c(NS(=O)(=O)c2cccc(NC(=O)c3ccc(C)nc3)c2)c1` [I-738, N-(3-(N-(2-bromo-5-methylphenyl)sulfamoyl)phenyl)-6-methylnicotinamide], the “% Inhibition of Apyrase” value came out at 52%.

`O=C(c1cccc(S(=O)(=O)N2CCCc3ccccc32)c1)N1CCc2ccccc21` [I-485, (3-((3,4-dihydroquinolin-1(2H)-yl)sulfonyl)phenyl)(indolin-1-yl)methanone]: the “% Inhibition of Apyrase” value worked out at 58%.

With `N#Cc1cccc(NC(=O)c2ccc(NS(=O)(=O)c3ccc(F)c(F)c3)cc2)c1` [I-932, N-(3-cyanophenyl)-4-((3,4-difluorophenyl)sulfonamido)benzamide], the “% Inhibition of Apyrase” value turned out to be 55%.

Regarding `CC(=O)Nc1cccc(NC(=O)c2cccc(S(=O)(=O)N3c4ccccc4CC3C)c2)c1` (centres unmarked) [I-589, N-(3-acetamidophenyl)-3-((2-methylindolin-1-yl)sulfonyl)benzamide], the “% Inhibition of Apyrase” value is 42%.

For the compound `COc1ccc([N+](=O)[O-])cc1NS(=O)(=O)c1cccc(C(=O)Nc2ccc(F)c([N+](=O)[O-])c2)c1` [I-430, N-(4-fluoro-3-nitrophenyl)-3-(N-(2-methoxy-5-nitrophenyl)sulfamoyl)benzamide], the “% Inhibition of Apyrase” value amounted to 72%.

`Cc1cc(Cl)ccc1NC(=O)c1ccc(Cl)c(S(=O)(=O)Nc2ccc(Cl)cc2C)c1` [I-433, 4-chloro-N-(4-chloro-2-methylphenyl)-3-(N-(4-chloro-2-methylphenyl)sulfamoyl)benzamide]: the “% Inhibition of Apyrase” value came out at 65%.
